# No end group written: not given here.
# Test system: male Lewis-rats
# Test: DTH ear swelling after 65 kD-protein challenge in rats with adjuvant arthritis
# Assay type: in vivo
# Conditions: 0.01 mg/kg injections day 0-5 and day 8-12; 10 µg 65 kD-protein into ear day 22, swelling day 24; group average
substance,measurement,value
"TAVVALELQ-OH [peptide I, Thr-Ala-Val-Val-Ala-Leu-Glu-Leu-Gln-OH]",% swelling,2.8 ± 3.4%

# From patent EP0365087A1, “Immunotoxins for the treatment or prophylaxis of auto-immune diseases” (priority 1988, dated 1990)
